In general, inhibition refers to how much of the control response was suppressed. As usually defined, the IC50 is the concentration that gives 50% inhibition.

The test system of assay [1] is A549. The experiment in a line: Antiproliferative activity against human A549 cells assessed as inhibition of cell growth at 20 uM incubated for 48 hrs by MTT assay. The format is functional. (Tetrazolium dyes change colour on reduction, which living cells bring about.)
Assay [2] concerns MDA-MB-231. The experiment in a line: Antiproliferative activity against human MDA-MB-231 cells assessed as inhibition of cell growth at 20 uM incubated for 48 hrs by MTT assay. It is filed as functional.
The test system of assay [3] is A-375. The experiment in a line: Antiproliferative activity against human A-375 cells assessed as inhibition of cell growth at 20 uM incubated for 48 hrs by MTT assay. It is filed as functional.
Assay [4] has as its system HCT-116. The experiment in a line: Antiproliferative activity against human HCT-116 cells assessed as inhibition of cell growth at 20 uM incubated for 48 hrs by MTT assay. It is filed as functional.
In assay [5] the test system is HeLa. The experiment in a line: Antiproliferative activity against human HeLa cells assessed as inhibition of cell growth at 20 uM incubated for 48 hrs by MTT assay. It is filed as functional.
For assay [6], the system named is A549. The experiment in a line: Antiproliferative activity against human A549 cells assessed as inhibition of cell growth incubated for 48 hrs by MTT assay. The format is functional, cell-based. As to conditions: A549, 48 h.
Assay [7] deals with HeLa. The experiment in a line: Antiproliferative activity against human HeLa cells assessed as inhibition of cell growth incubated for 48 hrs by MTT assay. It is filed as functional, cell-based.
In assay [8] the test system is A-375. The experiment in a line: Antiproliferative activity against human A-375 cells assessed as inhibition of cell growth incubated for 48 hrs by MTT assay. Particulars: A-375, 48 h. The format is functional, cell-based.
Assay [9] deals with MDA-MB-231. The experiment in a line: Antiproliferative activity against human MDA-MB-231 cells assessed as inhibition of cell growth incubated for 48 hrs by MTT assay. Particulars: MDA-MB-231, 48 h. The format is functional, cell-based.
Assay [10] concerns HCT-116. The experiment in a line: Antiproliferative activity against human HCT-116 cells assessed as inhibition of cell growth incubated for 48 hrs by MTT assay. It is filed as functional, cell-based. Particulars: HCT-116, 48 h.

Consider `Cc1cccc(NC(=O)Nc2cccc(COc3ccccc3C(N)=O)c2)c1`, for which the inhibition at 20 µM in assay [1] came to 57.7%; in assay [2], 3.6%; in [3] it was 43.7%; in [4] it was 66.5%; in assay [5] it was 48.6%.

For the molecule `COc1cccc(NC(=O)Nc2ccc(CNc3ccccc3C(N)=O)cc2)c1`, the inhibition at 20 µM in [1] is 59.3%; in assay [2] it was 50%; in assay [3], 50.8%; in [4], 82.3%; in assay [5], 66.8%. Besides, the IC50 in [6] was 41.5 µM; in assay [7] it was 21.9 µM; in [8] it was 29.8 µM; in assay [9] it was 21.6 µM; in assay [10], 14.2 µM.

With `NC(=O)c1ccccc1NCc1cccc(NC(=O)Nc2ccccc2)c1`, the inhibition at 20 µM in assay [1] stood at 66.2%; in assay [2], 51.2%; in assay [3], 36.9%; in assay [4] it was 64.6%; in assay [5], 49.8%.

Regarding `COc1cccc(NC(=O)Nc2cccc(COc3ccccc3C(N)=O)c2)c1`, the inhibition at 20 µM in [1] came to 15.8%; in assay [2], 38.8%; in assay [3] it was 29.9%; in [4], 36.8%; in [5], 33.1%.

Take `Cc1cccc(NC(=O)Nc2ccc(CNc3ccccc3C(N)=O)cc2)c1`: the inhibition at 20 µM in [1] stood at 2.12%; in assay [2], 50.5%; in assay [3] it was 14.3%; in assay [4], 33.7%; in assay [5], 39.6%.

As to `COc1cccc(NC(=O)Nc2ccc(COc3ccccc3C(N)=O)cc2)c1`, the inhibition at 20 µM was 33.1% in assay [1]; 53.4% in assay [2]; 33.1% in assay [3]; 56.7% in assay [4]; 21% in [5].

Turning to `NC(=O)c1ccccc1OCc1cccc(NC(=O)Nc2ccccc2)c1`, the inhibition at 20 µM was 54.7% in [1]; 15% in assay [2]; 40.6% in assay [3]; 71.1% in assay [4]; 41% in [5].

Take `NC(=O)c1ccccc1NCc1ccccc1NC(=O)Nc1cccc(Cl)c1`: the inhibition at 20 µM in assay [1] came to 52.6%; in [2] it was 36.2%; in assay [3], 30%; in assay [4] it was 44.3%; in assay [5], 7.53%.

For the molecule `COc1cccc(NC(=O)Nc2ccccc2COc2ccccc2C(N)=O)c1`, the inhibition at 20 µM in assay [1] was below 1%; in assay [2], 37.3%; in assay [3], 33.1%; in [4], 70.2%; in assay [5], 26.5%.

For `NC(=O)c1ccccc1OCc1ccccc1NC(=O)Nc1cccc(Cl)c1`, the inhibition at 20 µM in [1] worked out at 35.4%; in [2], 30.2%; in assay [3] it was 34.1%; in assay [4], 72.4%; in [5], 32.7%.

On to `NC(=O)c1ccccc1NCc1ccccc1NC(=O)Nc1ccccc1`, for which the inhibition at 20 µM in [1] is 17.7%; in [2], 40.9%; in assay [3] it was below 1%; in [4], 83.3%; in assay [5], below 1%.

Regarding `NC(=O)c1ccccc1OCc1ccc(NC(=O)Nc2cccc(Br)c2)cc1`, the inhibition at 20 µM was 42.4% in assay [1]; 46.1% in assay [2]; 54% in [3]; 62.2% in assay [4]; 60.4% in [5]. The IC50 in assay [6] is 26.8 µM; in assay [7], 17.6 µM; in assay [8], 13.4 µM; in assay [9] it was 27.4 µM; in [10], 17.6 µM.

As to `Cc1cccc(NC(=O)Nc2cccc(CNc3ccccc3C(N)=O)c2)c1`, the inhibition at 20 µM was determined as 58.3% in assay [1]; 57.9% in [2]; 42.4% in assay [3]; 76.2% in assay [4]; 58% in [5]. Moreover, the IC50 in assay [6] amounted to 26.8 µM; in assay [7], 29.3 µM; in assay [8], 37 µM; in assay [9] it was 24.7 µM; in assay [10], 25.3 µM.

In the case of `NC(=O)c1ccccc1OCc1ccccc1NC(=O)Nc1cccc(F)c1`, the inhibition at 20 µM in [1] is below 1%; in [2] it was 40.4%; in [3] it was 22.5%; in assay [4] it was 18.9%; in assay [5], below 1%.

Turning to `NC(=O)c1ccccc1NCc1ccc(NC(=O)Nc2cccc(Cl)c2)cc1`, the inhibition at 20 µM in assay [1] was found to be 52.6%; in assay [2], 47.3%; in assay [3] it was 58.3%; in assay [4], 63.6%; in [5], 76.5%. Also, the IC50 in [6] came out at 19.9 µM; in [7] it was 12.1 µM; in [8] it was 25.4 µM; in assay [9], 20.5 µM; in assay [10], 13.1 µM.

For `NC(=O)c1ccccc1NCc1ccc(NC(=O)Nc2ccccc2)cc1`, the inhibition at 20 µM is 29% in assay [1]; 45.2% in assay [2]; 35% in [3]; 41.2% in [4]; 32.3% in assay [5].

On to `NC(=O)c1ccccc1NCc1ccccc1NC(=O)Nc1cccc(Br)c1`, for which the inhibition at 20 µM in assay [1] came to 36.1%; in [2] it was 19.2%; in assay [3], 38.2%; in assay [4], 29.1%; in [5], 15.5%.

Regarding `NC(=O)c1ccccc1OCc1ccc(NC(=O)Nc2ccccc2)cc1`, the inhibition at 20 µM in assay [1] was found to be 24.3%; in assay [2], 45.5%; in [3] it was 37.3%; in [4] it was 34.2%; in [5], 20.1%.

Consider `NC(=O)c1ccccc1OCc1ccccc1NC(=O)Nc1ccccc1`, for which the inhibition at 20 µM in [1] stood at 33%; in [2] it was 30.3%; in assay [3], 21.7%; in [4], 13.3%; in [5], 36%.

With `Cc1cccc(NC(=O)Nc2ccccc2CNc2ccccc2C(N)=O)c1`, the inhibition at 20 µM in [1] was 1.8%; in assay [2] it was 17.9%; in assay [3], 34%; in assay [4], 71.9%; in assay [5], below 1%.

Regarding `NC(=O)c1ccccc1OCc1ccccc1NC(=O)Nc1cccc(Br)c1`, the inhibition at 20 µM was 10.1% in assay [1]; 27.3% in assay [2]; 31.7% in assay [3]; 40.4% in assay [4]; 42.5% in assay [5].

Regarding `Cc1cccc(NC(=O)Nc2ccccc2COc2ccccc2C(N)=O)c1`, the inhibition at 20 µM in assay [1] is 20.6%; in assay [2], 37.8%; in assay [3], below 1%; in [4], 80%; in assay [5], below 1%.

On to `NC(=O)c1ccccc1OCc1cccc(NC(=O)Nc2cccc(F)c2)c1`, for which the inhibition at 20 µM in assay [1] is 17%; in assay [2] it was 57.7%; in [3], 17.5%; in assay [4], 32.6%; in assay [5], 40.1%.

Consider `NC(=O)c1ccccc1OCc1ccc(NC(=O)Nc2cccc(F)c2)cc1`, for which the inhibition at 20 µM was 28.6% in assay [1]; 36.2% in assay [2]; 36.9% in assay [3]; 43% in assay [4]; 33.7% in [5].

In the case of `COc1cccc(NC(=O)Nc2ccccc2CNc2ccccc2C(N)=O)c1`, the inhibition at 20 µM in assay [1] is 13.1%; in [2], 37.7%; in [3], 35.4%; in assay [4], 45.3%; in assay [5], below 1%.

As to `NC(=O)c1ccccc1NCc1ccccc1NC(=O)Nc1cccc(F)c1`, the inhibition at 20 µM was below 1% in [1]; 52.1% in assay [2]; 28.3% in assay [3]; 40.5% in [4]; 44.6% in assay [5].

With `Cc1cccc(NC(=O)Nc2ccc(COc3ccccc3C(N)=O)cc2)c1`, the inhibition at 20 µM was 10% in assay [1]; 42.2% in assay [2]; 23.7% in assay [3]; 24% in assay [4]; 37.5% in assay [5].

Regarding `NC(=O)c1ccccc1NCc1ccc(NC(=O)Nc2cccc(F)c2)cc1`, the inhibition at 20 µM in assay [1] turned out to be 8.3%; in assay [2], 34.6%; in assay [3], 36.8%; in assay [4], 27%; in assay [5], 27.4%.

`NC(=O)c1ccccc1NCc1cccc(NC(=O)Nc2cccc(F)c2)c1`: the inhibition at 20 µM in assay [1] was below 1%; in [2], 58.9%; in [3] it was 17.9%; in [4], 45.6%; in assay [5] it was 28.9%.

Take `COc1cccc(NC(=O)Nc2cccc(CNc3ccccc3C(N)=O)c2)c1`: the inhibition at 20 µM in assay [1] is below 1%; in assay [2], 59.1%; in assay [3], 25%; in assay [4], 30.2%; in [5], 27%.

These data come from ChEMBL document CHEMBL5352439, “Design, synthesis, biological evaluation and molecular docking study of novel urea-based benzamide derivatives as potent poly(ADP-ribose) polymerase-1 (PARP-1) inhibitors” (Eur J Med Chem, 2022).
